Laboratory results as given in patent US6858622B2, “Cycloalkano-indole and -azaindole derivatives” (Bayer Aktiengesellschaft, priority 1994, dated 2005).

Legend:
[1] = test system: VLDL secretion; assay: Determination of the VLDL secretion in vivo in the hamster (Triton WR-1339 triglyceride rise); set-up: species or system golden hamsters; details: Mesocricetus auratus, po, VLDL secretion measured as triglyceride rise after Triton WR-1339
Experimental: 2. Determination of the VLDL Secretion In Vivo in the Hamster
The effect of the test substances on VLDL secretion in vivo is investigated in the hamster. To do this, golden hamsters are anaesthetized with Ketaset (83 mg/kg s.c.) and Nembutal (50 mg/kg i.p.) after premedication with atropine ([…] s.c.). When the animals have become reflex-free, the jugular vein is exposed and cannulated. 0.25 ml/kg of a 20% strength solution of Triton WR-1339 in physiological saline solution is then administered. This detergent inhibits the lipoprotein lipase and thus leads to a rise in the triglyceride level as a result of a lack of catabolism of secreted VLDL particles. This triglyceride rise can be used as a measure of the VLDL secretion rate.
Blood is taken from the animals before and also one and two hours after administration of the detergent by puncture of the retroorbital venous plexus. […] The triglyceride concentration in the serum thus obtained is determined with the aid of a modified commercially available enzyme test (Merckotest® triglyceride No. 14354). […] The optical density is then determined at a wavelength of 492 nm in an automatic plate-reading apparatus (SLT Spectra). […] The triglyceride concentration contained in the samples is determined with the aid of a standard curve measured in parallel. […]

[2] = test system: release of ApoB-100-associated lipoproteins from HepG2 cells; assay: Inhibition of the release of ApoB-100-associated lipoproteins from liver cells (HepG2, anti-LDL immunoassay); type: cell-based; details: Homo sapiens; substance concentration at which light absorption at 450 nm (ApoB-100-associated particles in HepG2 supernatant) is inhibited by 50% vs solvent control
Experimental: I. Inhibition of the Release of ApoB-100-Associated Lipoproteins
The test for detecting the inhibition of the release of ApoB-100-associated lipoproteins from liver cells was carried out in vitro using cultured liver cells, preferably using cells of the human line HepG2. These cells are cultured under standard conditions in medium for the culture of eukaryotic cells, preferably in RPMI 1640 with 10% foetal calf serum. HepG2 cells synthesize and secrete into the culture supernatant ApoB-100-associated lipoprotein particles which in principle are built up in a similar manner to the VLDL and LDL particles which are to be found in the plasma.
These particles can be detected using an immunoassay for human LDL. This immunoassay is carried out using antibodies which have been induced against human LDL in rabbits under standard conditions. The anti-LDL antibodies (rabbit anti-LDL Ab) were purified by affinity chromatography on an immunosorbent using human LDL. […] The immune complex located on the plastic surface is detected using monoclonal antibodies which have been induced against human LDL and purified according to standard conditions. […] After acidification of the reaction mixture with H2SO4, the specific light absorption at 450 nm is determined, which is a measure of the amount of ApoB-100-associated particles which have been secreted into the culture supernatant by the HepG2 cells. […]

| IC50 [2] | Structure (SMILES) | ED50 [1] |
| --- | --- | --- |
| – | Cc1cc(C)c2c3c(n(Cc4ccc(C(C(=O)N[C@@H](CO)c5ccccc5)C5CCCC5)cc4)c2n1)CCCC3 (single isomer, unassigned) [Ex. No. 2] | 10 to 15 mg/kg |
| 28 nM | Cc1cc(C)c2c3c(n(Cc4ccc(C(C(=O)N[C@@H](CO)c5ccccc5)C5CCCC5)cc4)c2n1)CCCC3 (stereo partly drawn) [Ex. No. 1, 2-S— and 2-(R)-2-[4-(2,4Dimethyl-5,6,7,8-tetrahydro-α-carbolin-9-yl)-methyl-phenyl]-2-cyclopentyl-acetic acid N—[(R)-phenylglycinolamide]] | – |
